{"source": "paper PMC11111408", "about": "“Concurrent inhibition of oncogenic and wild-type RAS-GTP for cancer therapy” (Nature, 2024)", "key": {"[1]": {"target": "KRAS^G12S (Homo sapiens, UniProt P01116+P62937, G12S)", "assay": "Biochemical RAS–RAF (BRAF RBD) disruption, TR-FRET", "set-up": "His6-TEV (N); made in house; host or cells: E. coli BL21(DE3)", "text": "(§1) Time-resolved fluorescence resonance energy transfer (TR-FRET) was used as previously described to assess disruption of the interactions between wild-type RAS or the mutant oncogenic RAS proteins and the RAS-binding domain of BRAF, and to assess the induction of interactions between the RAS proteins and CYPA[12]."}, "[2]": {"target": "HRAS WT (Homo sapiens, UniProt P01112+P62937)", "assay": "Biochemical RAS–RAF (BRAF RBD) disruption, TR-FRET", "set-up": "His6-TEV (N); made in house; host or cells: E. coli BL21(DE3)", "text": "as §1"}, "[3]": {"assay": "Mouse blood and tumour pharmacokinetics in NCI-H441 tumour bearing mice", "conditions": "for RMC-7977 (nmol/kg) Tumor: single dose, individual animals", "experimental": "Tumour tissue samples were homogenized with a 10× volume of methanol/15 mM PBS (1:2, v:v). Sample preparation and analysis on a Sciex 6500+ triple quadrupole mass spectrometer equipped with an ACQUITY UPLC system were performed as previously described[12].\nAll datapoints shown, n = 3 per dose and timepoint.\nFemale BALB/c nude mice, NOD SCID and NSG mice 6-8 weeks old from Beijing Vital River/VR Laboratory Animal Co., LTD, Beijing AniKeeper Biotech Co., Ltd., Shanghai Sino-British SIPPR/BK Laboratory Animal Co., LTD and The Jackson Laboratory were used. Animals were housed in polycarbonate cages, in an environmentally monitored, well ventilated room maintained at a constant temperature of 20-26°C and relative humidity of 40-80%. Fluorescent lighting provided illumination approximately 12 hours per day. Each mouse was inoculated at the right flank with tumor cells (2x10^6-1x10^7) in 100-200 µL of media/PBS supplemented with Matrigel (1:1). Treatments were started when the average tumor size reached 100-250 mm^3. […] Mice on studies were weighed and tumor measurements collected twice weekly. […] Body weights were collected twice a week during the study. For single-dose pharmacokinetic/pharmacodynamics (PK/PD) study, mice were randomized into treatment groups when mean tumor volume reached 400-600 mm^3."}, "[4]": {"assay": "Oral bioavailability in mice (LC-MS/MS of blood)", "type": "in vivo", "conditions": "mouse, whole blood, read-out: Oral Bioavailability m%F"}, "[5]": {"target": "KRAS^G12C (Homo sapiens, UniProt P01116+P62937, G12C)", "assay": "Biochemical RAS–RAF (BRAF RBD) disruption, TR-FRET", "set-up": "His6-TEV (N); made in house; host or cells: BL21(DE3) Escherichia coli", "text": "as §1"}, "[6]": {"target": "NRAS^Q61R (Homo sapiens, UniProt P01111+P62937, Q61R)", "assay": "Biochemical RAS–RAF (BRAF RBD) disruption, TR-FRET", "conditions": "(95% CI)", "text": "as §1"}, "[7]": {"target": "NRAS^Q61L (Homo sapiens, UniProt P01111+P62937, Q61L)", "assay": "Biochemical RAS–RAF (BRAF RBD) disruption, TR-FRET", "conditions": "(95% CI)", "text": "as §1"}, "[8]": {"target": "NRAS^Q61K (Homo sapiens, UniProt P01111+P62937, Q61K)", "assay": "Biochemical RAS–RAF (BRAF RBD) disruption, TR-FRET", "text": "as §1"}, "[9]": {"target": "KRAS^Q61H (Homo sapiens, UniProt P01116+P62937, Q61H)", "assay": "Biochemical RAS–RAF (BRAF RBD) disruption, TR-FRET", "text": "as §1"}, "[10]": {"target": "KRAS^G12A (Homo sapiens, UniProt P01116+P62937, G12A)", "assay": "Biochemical RAS–RAF (BRAF RBD) disruption, TR-FRET", "text": "as §1"}, "[11]": {"target": "HRAS^G13R (Homo sapiens, UniProt P01112+P62937, G13R)", "assay": "Biochemical RAS–RAF (BRAF RBD) disruption, TR-FRET", "conditions": "HRAS^G13R; BRAF RBD; (95% CI); read-out: Biochemical RAS-RAF Disruption EC50", "text": "as §1"}, "[12]": {"target": "NRAS WT (Homo sapiens, UniProt P01111+P62937)", "assay": "Biochemical RAS–RAF (BRAF RBD) disruption, TR-FRET", "text": "as §1"}, "[13]": {"target": "KRAS^G13D (Homo sapiens, UniProt P01116+P62937, G13D)", "assay": "Biochemical RAS–RAF (BRAF RBD) disruption, TR-FRET", "text": "as §1"}, "[14]": {"target": "KRAS^G13C (Homo sapiens, UniProt P01116+P62937, G13C)", "assay": "Biochemical RAS–RAF (BRAF RBD) disruption, TR-FRET", "text": "as §1"}, "[15]": {"system": "AsPC-1 and NCI-H441 cells", "assay": "pERK (MSD) and proliferation (CTG) in AsPC-1 and NCI-H441 cells, CYPA inhibitor co-treatment or PPIA KO", "type": "cell-based, human"}, "[16]": {"conditions": "female, BALB/c nude, mouse, tumour, po, 10 mg/kg"}, "[17]": {"conditions": "female, BALB/c nude, mouse, whole blood, po, 10 mg/kg"}}, "note": "“And” between values parts separate entries of the source, which are not always exact repeats. Equal values may be shown once.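 Throughout, for Proliferation inhibition with CYPA inhibitor competition: luminescence as % of CYPA inhibitor-only control with 3 mM sanglifehrin A competitor.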"}
{"compound": "CCn1c(-c2cc(N3CCN(C4CC4)CC3)cnc2[C@H](C)OC)c2c3cc(ccc31)-c1csc(n1)C[C@H](NC(=O)[C@H]1[C@@H]3COC[C@@H]31)C(=O)N1CCC[C@H](N1)C(=O)OCC(C)(C)C2", "note": "[RMC-7977]", "values": [{"measurement": "EC50", "setting": "[1]", "result": 0.107, "unit": "µM"}, {"measurement": "EC50", "setting": "[2]", "result": 0.0599, "unit": "µM"}, {"measurement": "AUC(0-t)", "setting": "[3]; [16]", "result": 24300, "unit": "ng·h/mL"}, {"measurement": "half-life", "setting": "[3]; [16]", "result": 18.3, "unit": "h"}, {"measurement": "AUC(0-t)", "setting": "[3]; [17]", "result": 7240, "unit": "ng·h/mL"}, {"measurement": "Cmax", "setting": "[3]; [17]", "result": 1110, "unit": "ng/mL"}, {"measurement": "half-life", "setting": "[3]; [17]", "result": 2.78, "unit": "h"}, {"measurement": "RMC-7977 (nmol/kg) Tumor", "setting": "[3]; 8h, 1 mg/kg", "result": "244 nmol/kg and 196 nmol/kg and 235 nmol/kg"}, {"measurement": "RMC-7977 (nmol/kg) Tumor", "setting": "[3]; 8h, 5 mg/kg", "result": "458 nmol/kg and 496 nmol/kg and 1040 nmol/kg"}, {"measurement": "RMC-7977 (nmol/kg) Tumor", "setting": "[3]; 8h, 10 mg/kg", "result": "998 nmol/kg and 832 nmol/kg and 1249 nmol/kg and 1135 nmol/kg and 713 nmol/kg and 1191 nmol/kg"}, {"measurement": "RMC-7977 (nmol/kg) Tumor", "setting": "[3]; 8h, 25 mg/kg", "result": "2289 nmol/kg and 4057 nmol/kg and 2196 nmol/kg"}, {"measurement": "RMC-7977 (nmol/kg) Tumor", "setting": "[3]; 24h, 1 mg/kg", "result": "38.1 nmol/kg and 54.8 nmol/kg and 48.3 nmol/kg"}, {"measurement": "RMC-7977 (nmol/kg) Tumor", "setting": "[3]; 24h, 5 mg/kg", "result": "201 nmol/kg and 183 nmol/kg and 226 nmol/kg"}, {"measurement": "RMC-7977 (nmol/kg) Tumor", "setting": "[3]; 24h, 10 mg/kg", "result": "310 nmol/kg and 343 nmol/kg and 320 nmol/kg and 402 nmol/kg and 316 nmol/kg and 606 nmol/kg"}, {"measurement": "RMC-7977 (nmol/kg) Tumor", "setting": "[3]; 24h, 25 mg/kg", "result": "1047 nmol/kg and 906 nmol/kg and 996 nmol/kg"}, {"measurement": "RMC-7977 (nmol/kg) Tumor", "setting": "[3]; 48h, 1 mg/kg", "result": "27 nmol/kg and 31.7 nmol/kg"}, {"measurement": "RMC-7977 (nmol/kg) Tumor", "setting": "[3]; 48h, 5 mg/kg", "result": "68.9 nmol/kg and 51.9 nmol/kg and 52.5 nmol/kg"}, {"measurement": "RMC-7977 (nmol/kg) Tumor", "setting": "[3]; 48h, 10 mg/kg", "result": "177 nmol/kg and 192 nmol/kg and 214 nmol/kg and 205 nmol/kg and 233 nmol/kg and 65.7 nmol/kg"}, {"measurement": "RMC-7977 (nmol/kg) Tumor", "setting": "[3]; 48h, 25 mg/kg", "result": "433 nmol/kg and 394 nmol/kg and 691 nmol/kg"}, {"measurement": "RMC-7977 (nmol/kg) Tumor", "setting": "[3]; 72h, 5 mg/kg", "result": "52.4 nmol/kg and 38.4 nmol/kg"}, {"measurement": "RMC-7977 (nmol/kg) Tumor", "setting": "[3]; 72h, 10 mg/kg", "result": "155 nmol/kg and 86.2 nmol/kg and 63.8 nmol/kg and 71.8 nmol/kg and 72 nmol/kg"}, {"measurement": "RMC-7977 (nmol/kg) Tumor", "setting": "[3]; 72h, 25 mg/kg", "result": "253 nmol/kg and 209 nmol/kg and 230 nmol/kg"}, {"measurement": "overall exposure in subcutaneous tumours compared with blood", "setting": "[3]; subcutaneous xenograft tumour models", "result": "approximately threefold increase"}, {"measurement": "bioavailability", "setting": "[4]", "result": 63, "unit": "%"}, {"measurement": "EC50", "setting": "[5]", "result": 0.0318, "unit": "µM"}, {"measurement": "EC50", "setting": "[6]", "result": 0.181, "unit": "µM"}, {"measurement": "EC50", "setting": "[7]", "result": 0.145, "unit": "µM"}, {"measurement": "EC50", "setting": "[8]", "result": 0.0539, "unit": "µM"}, {"measurement": "EC50", "setting": "[9]", "result": 0.0477, "unit": "µM"}, {"measurement": "EC50", "setting": "[10]", "result": 0.102, "unit": "µM"}, {"measurement": "EC50", "setting": "[11]", "result": 0.0237, "unit": "µM"}, {"measurement": "EC50", "setting": "[12]", "result": 0.0577, "unit": "µM"}, {"measurement": "EC50", "setting": "[13]", "result": 0.142, "unit": "µM"}, {"measurement": "EC50", "setting": "[14]", "result": 0.0497, "unit": "µM"}, {"measurement": "Proliferation inhibition with CYPA inhibitor competition", "setting": "[15]; ASPC1, RMC-7977 0.0152 nM", "result": 90.9654}, {"measurement": "pERK signal remaining (% of control) with CYPA inhibitor competition", "setting": "[15]; ASPC1, RMC-7977 0.0152 nM", "result": "120.616 and 135.308 and 125.91 and 115.107"}, {"measurement": "Proliferation inhibition with CYPA inhibitor competition", "setting": "[15]; ASPC1, RMC-7977 0.0457 nM", "result": 85.8573}, {"measurement": "pERK signal remaining (% of control) with CYPA inhibitor competition", "setting": "[15]; ASPC1, RMC-7977 0.0457 nM", "result": "139.301 and 149.714 and 121.136 and 102.253"}, {"measurement": "Proliferation inhibition with CYPA inhibitor competition", "setting": "[15]; ASPC1, RMC-7977 0.41 nM", "result": "72.6185 and 81.3976"}, {"measurement": "pERK signal remaining (% of control) with CYPA inhibitor competition", "setting": "[15]; ASPC1, RMC-7977 0.41 nM", "result": "110.343 and 126.372 and 94.9104 and 97.1292"}, {"measurement": "Proliferation inhibition with CYPA inhibitor competition", "setting": "[15]; ASPC1, RMC-7977 3.70 nM", "result": "35.3653 and 35.6028"}, {"measurement": "Proliferation inhibition with CYPA inhibitor competition", "setting": "[15]; ASPC1, RMC-7977 11.11 nM", "result": "15.7797 and 21.3117"}, {"measurement": "Proliferation inhibition with CYPA inhibitor competition", "setting": "[15]; ASPC1, RMC-7977 33.33 nM", "result": "8.746 and 8.58"}, {"measurement": "Proliferation inhibition with CYPA inhibitor competition", "setting": "[15]; ASPC1, RMC-7977 100.00 nM", "result": "4.002 and 7.934"}, {"measurement": "Proliferation, RMC-7977 with or without CYPA inhibitor (panel title not shown)", "setting": "[15]; ASPC1, RMC-7977 alone, 0.0152 nM, 15.2 pM", "result": 91.3484}]}
